Drawing on US8546579B2, “Bicycloheteroaryl compounds as P2X7 modulators and uses thereof” (Evotec (US) Inc., priority 2006, dated 2013), this text covers inhibition and IC50 for 27 compounds.

For the assay, the target named is T1, P2X7 receptor (Homo sapiens, UniProt Q99572).
T1 construct: host or cells: THP-1 cells differentiated with LPS and IFN-γ
T1 sequence (Q99572 1-595): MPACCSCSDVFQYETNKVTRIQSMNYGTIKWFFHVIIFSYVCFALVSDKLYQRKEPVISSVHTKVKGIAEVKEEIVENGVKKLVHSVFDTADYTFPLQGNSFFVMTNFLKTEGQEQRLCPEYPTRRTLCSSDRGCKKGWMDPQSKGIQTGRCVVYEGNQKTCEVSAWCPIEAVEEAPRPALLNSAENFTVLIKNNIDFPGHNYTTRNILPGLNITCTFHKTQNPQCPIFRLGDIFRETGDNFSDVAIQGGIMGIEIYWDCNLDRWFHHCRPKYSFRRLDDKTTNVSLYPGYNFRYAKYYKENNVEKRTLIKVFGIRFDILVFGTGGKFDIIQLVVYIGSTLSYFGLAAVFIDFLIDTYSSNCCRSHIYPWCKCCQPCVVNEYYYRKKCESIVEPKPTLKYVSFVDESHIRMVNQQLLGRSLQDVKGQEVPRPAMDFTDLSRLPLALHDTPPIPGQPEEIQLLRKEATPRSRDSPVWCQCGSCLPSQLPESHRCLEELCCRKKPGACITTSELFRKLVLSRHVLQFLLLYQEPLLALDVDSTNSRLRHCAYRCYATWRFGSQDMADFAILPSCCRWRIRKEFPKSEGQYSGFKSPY
The assay is described as follows: IL-1β release assay in differentiated THP-1 cells stimulated with BzATP (Example 9). Type of assay: cell-based. On the set-up: inhibition: dose or concentration left out as unconfirmed. As to conditions: for inhibition at 0.3 µM: 0.3 μM compound, read-out: IL-1β % Inhib. @ 0.3 μM; for inhibition at 0.3 µM / inhibition at 0.1 µM: differentiated THP-1 cells, BzATP 250 uM; for pIC50: THP-1 cells, BzATP-stimulated IL-1β release, four parameter logistic fit; for inhibition at 0.1 µM: 0.1 μM compound; for inhibition: THP-1, read-out: IL-1β % Inhib. As to the method:
THP-1 cells (ATCC Cat # 285-IF-100) are plated in 96 well plates at a concentration of 200,000 cells per well and allowed to differentiate in RPMI-1640 media (ATCC Cat # 30-2001) containing 10% FBS, 100 IU/mL penicillin, 100 ug/mL streptomycin, 100 ng/mL LPS and 100 ng/mL IFN-γ for 16 hours. Following differentiation, the cells are treated for an additional 2 hours in RPMI-1640 media containing 100 IU/mL penicillin, 100 ug/mL streptomycin and fresh LPS at 100 ng/mL. The cells are then pretreated for 30 minutes with the compound of interest at the appropriate concentration in RPMI media containing 100 IU/mL penicillin, 100 ug/mL streptomycin. Following the pretreatment 2′,3′-O-(4-benzoylbenzoyl)-adenosine 5′-triphosphate (Sigma Aldrich Cat # B6396) is added to a final concentration of 250 uM and the cells are incubated for an additional 45 minutes. 30 uL of cell supernatant is then collected and IL-1β levels determined via ELISA (R&D systems Cat. # HSLB50) according to manufacturer's recommendations using the Tecan Safire plate reader. Background adjusted IL-1β levels of drug treated and non-treated cells are used to calculate the percent inhibition.
The compounds set forth in Table 1 were tested for activity in a cellular model as described herein. Specifically, cells were pretreated with differing amounts of the compound under test and released IL-1β determined as in Example 9, above. Measurements were made and IC50 values, presented in Table 2, below, were determined by fitting the data to a four parameter logistic equation using GraphPad Prism software (GraphPad Software, Inc). The equation may be expressed by the following formula: Y=Bottom+(Top−Bottom)/(1+10^((Log EC50−X)*HillSlope)) Where X is the logarithm of concentration, Y is the response and Y starts at Bottom and goes to Top with a sigmoid shape.

Setting [1] is: "*" class symbols, read-out: IL-1β % Inhib. ("*" symbols: at 0.1 μM).
Setting [2] is: symbols * to ****, read-out: IL-1β % Inhib. (asterisk symbols: at 0.1 μM).

By pIC50 is commonly meant −log10 of the IC50, conventionally taken in molar units.

pIC50: −log10 of the molar value. Read-outs that look alike come from different tables or passages of the source.

With `CN(C)CCn1ccc2c(NC(=O)Cc3ccccc3F)cccc2c1=O` [Compound 1154], the inhibition at 0.3 µM ('+' class symbols) lay within 0 to 25%.

In turn, `CS(=O)(=O)CCn1ccc2c(NC(=O)Cc3ccc(Cl)c(Cl)c3)cccc2c1=O` [Compound 1632] had a pIC50 of 6.50. The inhibition at 0.3 µM ("+" class symbols) was 26 to 50%.

Consider `CC(C)(C)Cn1ccc2c(NC(=O)CC3CC4CC[C@H]3C4)cccc2c1=O` (stereo partly drawn) [Compound 1270], for which, for the setting “symbols + to ++++”, the inhibition at 0.3 µM was in the range of 0 to 25%.

Compound `CN(C)CCn1ccc2c(NC(=O)CC3CCCCCC3)cccc2c1=O` [Compound 1389] showed a negative-log IC50 (pIC50) of 6.51. Also, where the note is “symbols + to ++++”, the inhibition at 0.3 µM was 26 to 50%.

As for `COc1ccc(CC(=O)Nc2cccc3c(=O)n(CC(C)(C)C)ccc23)c(OC)c1` [Compound 1278], the inhibition at 0.3 µM (symbols + to ++++) fell in the range of 0 to 25%.

Regarding `CN(C)CCn1ccc2c(NC(=O)c3cc4ccccc4o3)cccc2c1=O` [Compound 1162], the inhibition at 0.3 µM ('+' class symbols) is 0 to 25%.

In the case of `CC(c1ccccn1)n1ccc2c(NC(=O)Cc3ccc(Cl)c(F)c3)cccc2c1=O` (stereo not drawn) [Compound 1637], the inhibition at 0.1 µM under setting [1] was 26 to 50%.

As for `Cc1ccccc1CCC(=O)Nc1cccc2c(=O)n(CCN(C)C)ccc12` [Compound 1399], the inhibition fell in the range of 0 to 25%.

Turning to `COCCn1ccc2c(NC(=O)CCc3ccc(OC)cc3)cccc2c1=O` [Compound 1311], the inhibition at 0.3 µM (symbols + to ++++) lay in the range of 0 to 25%.

Regarding `COc1cc(OC)cc(C(=O)Nc2cccc3c(=O)n(C)ccc23)c1` [Compound 1290], the inhibition at 0.1 µM under setting [2] lay within 0 to 25%.

On to `CCOc1ccc(C(=O)Nc2cccc3c(=O)n(C)ccc23)cc1` [Compound 1291], for which the inhibition at 0.3 µM (symbols + to ++++) lay within 0 to 25%.

Regarding `CN(C)CCn1ccc2c(NC(=O)c3ccc4ccccc4c3)cccc2c1=O` [Compound 1153], the inhibition at 0.3 µM ('+' class symbols) fell in the range of 0 to 25%.

On to `COc1ccc(C(=O)Nc2cccc3c(=O)n(CCN(C)C)ccc23)cc1C` [Compound 1184], for which the inhibition at 0.3 µM ('+' class symbols) was in the range of 0 to 25%.

On to `CN1CCC(Cn2ccc3c(NC(=O)Cc4cccc5ccccc45)cccc3c2=O)CC1` [Compound 1470], for which the inhibition was in the range of 0 to 25%.

Regarding `CS(=O)(=O)CCn1ccc2c(NC(=O)Cc3ccc(Cl)c(C(F)(F)F)c3)cccc2c1=O` [Compound 1630, 2-(4-Chloro-3-trifluoromethyl-phenyl)-N-[2-(2-methanesulfonyl-ethyl)-1-oxo-1,2-dihydro-isoquinolin-5-yl]acetamide], the pIC50 is 6.96. In addition, where the note is “"+" class symbols”, the inhibition at 0.3 µM was not below 76%.

`Cc1ccc(CC(=O)Nc2cccc3c(=O)n(CC4CCOCC4)ccc23)cc1` [Compound 1107]: the inhibition at 0.3 µM ('+' class symbols) was in the range of 0 to 25%.

`O=C(Nc1cccc2c(=O)n(CCN3CCOCC3)ccc12)c1cc(Cl)ccc1Cl` [Compound 1190]: where the note is “'+' class symbols”, the inhibition at 0.3 µM is 0 to 25%.

On to `COc1ccc(CCC(=O)Nc2cccc3c(=O)n(Cc4cccnc4)ccc23)cc1` [Compound 1349], for which the inhibition at 0.1 µM under setting [2] was in the range of 0 to 25%.

For `COCCn1ccc2c(NC(=O)Cc3ccc(C)cc3)cccc2c1=O` [Compound 1318], the inhibition at 0.3 µM (symbols + to ++++) was 0 to 25%.

As to `CN(C)CCn1ccc2c(NC(=O)CCCc3ccccc3)cccc2c1=O` [Compound 1161], for the setting “'+' class symbols”, the inhibition at 0.3 µM was 0 to 25%.

For `COc1cccc(CCC(=O)Nc2cccc3c(=O)n(Cc4ccc(OC(F)(F)F)cc4)ccc23)c1` [Compound 1552], the inhibition was 0 to 25%.

With `COc1cc(CC(=O)Nc2cccc3c(=O)n(CC4CCOCC4)ccc23)cc(OC)c1` [Compound 1111], the inhibition at 0.3 µM ('+' class symbols) is 0 to 25%.

As to `O=C(Nc1cccc2c(=O)n(CC3CCOCC3)ccc12)c1ccc(Cl)cc1Cl` [Compound 1083], the inhibition at 0.3 µM ('+' class symbols) lay in the range of 0 to 25%.

As for `CCOc1ccc(CC(=O)Nc2cccc3c(=O)n(CCCN4CCCC4=O)ccc23)cc1` [Compound 1523], the inhibition was in the range of 0 to 25%.

For `Cc1c(Cl)cccc1C(=O)Nc1cccc2c(=O)n(Cc3ccc(OC(F)(F)F)cc3)ccc12` [Compound 1598], under setting [1], the inhibition at 0.1 µM was 26 to 50%.

In the case of `COc1cccc(CC(=O)Nc2cccc3c(=O)n(C)ccc23)c1` [Compound 1297], for the setting “symbols + to ++++”, the inhibition at 0.3 µM lay in the range of 26 to 50%.

Regarding `Cc1cccc(CC(=O)Nc2cccc3c(=O)n(CCN4CCOCC4)ccc23)c1` [Compound 1211], the inhibition at 0.3 µM (symbols + to ++++) is 0 to 25%.
